From patent US9770026B2, “Substituted pyrimidine compound and uses thereof” (Shenyang Sinochem Agrochemicals R&D Co., Ltd., priority 2012, dated 2017)

Assays:
[1] = test system: Diamond back moth; experiment: insecticidal activity against diamond back moth, airbrush spray; format: in vivo
Outline: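 Airbrush leaf-disc spray test: both faces of 2 cm cabbage discs received 0.5 ml of test solution at 0.7 kg/cm^2. Solutions were made in acetone:methanol (1:1) and brought to concentration with 0.1% Tween 80 in water. Ten second-instar larvae per disc, triplicates, were held at 25° C and 60˜70% R.H., with mortality recorded at 72 hrs.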

[2] = test system: armyworm; experiment: bioactivity test against armyworm, airbrush spray; format: in vivo
[3] = test system: Green peach aphids (Myzus Persicae Sulzer); experiment: bioactivity test against green peach aphid, airbrush foliar spray; format: in vivo
Outline: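 Death rate was scored at 48 hrs, held at 25±1 C and 60±5% RH, following airbrush foliar spray (0.5 mL, 10 psi) onto cabbage leaf discs bearing about 15-30 aphids. Test solutions: compound dissolved in 1:1 acetone:methanol, brought to concentration with 0.1% tween 80 water.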

[4] = test system: carmine spider mite; experiment: bioactivity test against carmine spider mite, airbrush spray; format: in vivo
Outline: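 Broadbean seedlings infested with adult mites were sprayed with compound (acetone/methanol stock diluted in 0.1% Tween 80 water) by airbrush at 0.7 kg/cm^2, 0.5 ml. Three replicates were run. Mortality was scored after 72 hrs.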

[5] = test system: corn rust; experiment: protectant activity in vivo against corn rust; conditions: for control effect against corn rust (%): protectant activity
[6] = test system: wheat powdery mildew; experiment: protectant activity in vivo against wheat powdery mildew
[7] = test system: cucumber downy mildew; experiment: protectant activity in vivo against cucumber downy mildew
[8] = 100 ppm, mortality after 72 hrs
[9] = 600 ppm, mortality after 72 hrs
[10] = 10 ppm, death rate after 48 hrs
[11] = 100 ppm, death rate after 48 hrs
[12] = 600 ppm, death rate after 48 hrs

## CCc1ncnc(NCCc2ccc(Oc3ccc(Cl)cc3)cc2)c1Cl [II-297]
[1]; 72 h, 600 ppm, mortality after 72 hrs, read-out: control (test results against diamond back moth)
  pest or weed control at 600 ppm: 100%
[2]; 72 h, 10 mg/L, read-out: Insecticidal activity against armyworm (%)
  pest or weed control at 10 µg/mL: 30%
[2]; 72 h, 100 mg/L, read-out: Insecticidal activity against armyworm (%)
  pest or weed control at 100 µg/mL: 95%
[2]; 72 h, 600 mg/L, read-out: Insecticidal activity against armyworm (%)
  pest or weed control at 600 µg/mL: 100%
[2]; 72 h, 100 ppm, mortality after 72 h
  pest or weed control at 100 ppm: 80 to 99%
[2]; 72 h, 600 ppm, mortality after 72 h
  pest or weed control at 600 ppm: 100%
[3]; Myzus persicae, foliar, 48 h, 1.25 mg/L, contrastive test, read-out: Insecticidal activity against peach aphid (%)
  pest or weed control at 1.25 µg/mL: 93%
[3]; Myzus persicae, foliar, 48 h, 2.5 mg/L, contrastive test, read-out: Insecticidal activity against peach aphid (%)
  pest or weed control at 2.5 µg/mL: 100%
[3]; Myzus persicae, foliar, 48 h, 5 mg/L, contrastive test, read-out: Insecticidal activity against peach aphid (%)
  pest or weed control at 5 µg/mL: 100%
[3]; Myzus persicae, foliar, 48 h, 10 mg/L, contrastive test, read-out: Insecticidal activity against peach aphid (%)
  pest or weed control at 10 µg/mL: 100%
[3]; Myzus persicae, foliar, 48 h, 100 mg/L, contrastive test, read-out: Insecticidal activity against peach aphid (%)
  pest or weed control at 100 µg/mL: 100%
[3]; Myzus persicae, foliar, 48 h, 600 mg/L, contrastive test, read-out: Insecticidal activity against peach aphid (%)
  pest or weed control at 600 µg/mL: 100%
[3]; Myzus persicae, foliar, 48 h, 2.5 ppm, death rate after 48 hrs
  pest or weed control at 2.5 ppm: 100%
[3]; Myzus persicae, foliar, 48 h, 5 ppm, death rate after 48 hrs
  pest or weed control at 5 ppm: 100%
[3]; Myzus persicae, foliar, 48 h, 10 ppm, death rate after 48 hrs
  pest or weed control at 10 ppm: 100%
[3]; Myzus persicae, foliar, 48 h, 100 ppm, death rate after 48 hrs
  pest or weed control at 100 ppm: 100%
[3]; Myzus persicae, foliar, 48 h, 600 ppm, death rate after 48 hrs
  pest or weed control at 600 ppm: 100%
[4]; Tetranychus cinnabarinus, 72 h, 10 mg/L, contrastive test, read-out: Insecticidal activity against carmine spider mite (% )
  pest or weed control at 10 µg/mL: 74%
[4]; Tetranychus cinnabarinus, 72 h, 100 mg/L, contrastive test, read-out: Insecticidal activity against carmine spider mite (% )
  pest or weed control at 100 µg/mL: 100%
[4]; Tetranychus cinnabarinus, 72 h, 600 mg/L, contrastive test, read-out: Insecticidal activity against carmine spider mite (% )
  pest or weed control at 600 µg/mL: 100%
[4]; Tetranychus cinnabarinus, 72 h, 100 ppm, mortality after 72 hrs
  pest or weed control at 100 ppm: 100%
[4]; Tetranychus cinnabarinus, 72 h, 600 ppm, mortality after 72 hrs
  pest or weed control at 600 ppm: 100%
[5]; Zea mays, 168 h, read-out: protectant activity against corn rust in vivo, 6.25 ppm
  pest or weed control at 6.25 ppm: 80 to 99%
[5]; Zea mays, 168 h, read-out: protectant activity against corn rust in vivo, 25 ppm
  pest or weed control at 25 ppm: 80 to 99%
[5]; Zea mays, 168 h, read-out: protectant activity against corn rust in vivo, 100 ppm
  pest or weed control at 100 ppm: 100%
[5]; Zea mays, 168 h, read-out: protectant activity against corn rust in vivo, 400 ppm
  pest or weed control at 400 ppm: 100%
[6]; Triticum aestivum, 168 h, read-out: control effect against wheat powdery mildew (%), 0.4 mg/L, protectant activity
  pest or weed control at 0.4 µg/mL: 30%
[6]; Triticum aestivum, 168 h, read-out: control effect against wheat powdery mildew (%), 1.6 mg/L, protectant activity
  pest or weed control at 1.6 µg/mL: 40%
[6]; Triticum aestivum, 168 h, read-out: control effect against wheat powdery mildew (%), 6.25 mg/L, protectant activity
  pest or weed control at 6.25 µg/mL: 90%
[6]; Triticum aestivum, 168 h, read-out: control effect against wheat powdery mildew (%), 25 mg/L, protectant activity
  pest or weed control at 25 µg/mL: 100%
[6]; Triticum aestivum, 168 h, read-out: control effect against wheat powdery mildew (%), 100 mg/L, protectant activity
  pest or weed control at 100 µg/mL: 100%
[6]; Triticum aestivum, 168 h, read-out: control effect against wheat powdery mildew (%), 400 mg/L, protectant activity
  pest or weed control at 400 µg/mL: 100%
[6]; Triticum aestivum, 168 h, read-out: protectant activity against wheat powdery mildew in vivo, 6.25 ppm
  pest or weed control at 6.25 ppm: 80 to 99%
[6]; Triticum aestivum, 168 h, read-out: protectant activity against wheat powdery mildew in vivo, 25 ppm
  pest or weed control at 25 ppm: 100%
[6]; Triticum aestivum, 168 h, read-out: protectant activity against wheat powdery mildew in vivo, 100 ppm
  pest or weed control at 100 ppm: 100%
[6]; Triticum aestivum, 168 h, read-out: protectant activity against wheat powdery mildew in vivo, 400 ppm
  pest or weed control at 400 ppm: 100%
[7]; Cucumis sativus, 168 h, read-out: control effect against cucumber downy mildew (%), 25 mg/L, protectant activity
  pest or weed control at 25 µg/mL: 100%
[7]; Cucumis sativus, 168 h, read-out: control effect against cucumber downy mildew (%), 50 mg/L, protectant activity
  pest or weed control at 50 µg/mL: 100%
[7]; Cucumis sativus, 168 h, read-out: control effect against cucumber downy mildew (%), 100 mg/L, protectant activity
  pest or weed control at 100 µg/mL: 100%
[7]; Cucumis sativus, 168 h, read-out: control effect against cucumber downy mildew (%), 400 mg/L, protectant activity
  pest or weed control at 400 µg/mL: 100%
[7]; Cucumis sativus, 168 h, read-out: protectant activity against cucumber downy mildew in vivo, 25 ppm
  pest or weed control at 25 ppm: 100%
[7]; Cucumis sativus, 168 h, read-out: protectant activity against cucumber downy mildew in vivo, 50 ppm
  pest or weed control at 50 ppm: 100%
[7]; Cucumis sativus, 168 h, read-out: protectant activity against cucumber downy mildew in vivo, 100 ppm
  pest or weed control at 100 ppm: 100%
[7]; Cucumis sativus, 168 h, read-out: protectant activity against cucumber downy mildew in vivo, 400 ppm
  pest or weed control at 400 ppm: 100%

## CCc1ncnc(NCCc2ccc(Oc3ccc(C#N)cc3F)cc2)c1Cl [II-482]
[1]; 10 mg/L
  Insecticidal activity against diamond back moth (%): 60%
[1]; 100 mg/L
  Insecticidal activity against diamond back moth (%): 100%
[1]; 600 mg/L
  Insecticidal activity against diamond back moth (%): 100%
[1]; [8]
  control (test results against diamond back moth): 100%
[1]; [9]
  control (test results against diamond back moth): 100%
[2]; 10 mg/L
  Insecticidal activity against armyworm (%): 80%
[2]; 100 mg/L
  Insecticidal activity against armyworm (%): 100%
[2]; 600 mg/L
  Insecticidal activity against armyworm (%): 100%
[2]; 100 ppm, mortality after 72 h
  control (test results against armyworm): 100%
[2]; 600 ppm, mortality after 72 h
  control (test results against armyworm): 100%
[3]; 1.25 mg/L, contrastive test
  Insecticidal activity against peach aphid (%): 100%
[3]; 2.5 mg/L, contrastive test
  Insecticidal activity against peach aphid (%): 100%
[3]; 5 mg/L, contrastive test
  Insecticidal activity against peach aphid (%): 100%
[3]; 10 mg/L, contrastive test
  Insecticidal activity against peach aphid (%): 100%
[3]; 100 mg/L, contrastive test
  Insecticidal activity against peach aphid (%): 100%
[3]; 600 mg/L, contrastive test
  Insecticidal activity against peach aphid (%): 100%
[3]; 2.5 ppm, death rate after 48 hrs
  control (test results against green peach aphid): 100%
[3]; 5 ppm, death rate after 48 hrs
  control (test results against green peach aphid): 100%
[3]; [10]
  control (test results against green peach aphid): 100%
[3]; [11]
  control (test results against green peach aphid): 100%
[3]; [12]
  control (test results against green peach aphid): 100%
[4]; 2.5 mg/L
  Insecticidal activity against carmine spider mite (% ): 93%
[4]; 5 mg/L
  Insecticidal activity against carmine spider mite (% ): 100%
[4]; 10 mg/L, contrastive test
  Insecticidal activity against carmine spider mite (% ): 100%
[4]; 100 mg/L, contrastive test
  Insecticidal activity against carmine spider mite (% ): 100%
[4]; 600 mg/L, contrastive test
  Insecticidal activity against carmine spider mite (% ): 100%
[4]; 5 ppm, mortality after 72 hrs
  control against carmine spider mite: 100%
[4]; 10 ppm, mortality after 72 hrs
  control against carmine spider mite: 100%
[4]; [8]
  control against carmine spider mite: 100%
[4]; [9]
  control against carmine spider mite: 100%
[5]; 6.25 mg/L
  control effect against corn rust (%): 100%
[5]; 25 mg/L
  control effect against corn rust (%): 100%
[5]; 100 mg/L
  control effect against corn rust (%): 100%
[5]; 400 mg/L
  control effect against corn rust (%): 100%
[5]; 6.25 ppm
  protectant activity against corn rust in vivo: 100%
[5]; 25 ppm
  protectant activity against corn rust in vivo: 100%
[5]; 100 ppm
  protectant activity against corn rust in vivo: 100%
[5]; 400 ppm
  protectant activity against corn rust in vivo: 100%
[6]; 6.25 mg/L, protectant activity
  control effect against wheat powdery mildew (%): 98%
[6]; 25 mg/L, protectant activity
  control effect against wheat powdery mildew (%): 100%
[6]; 100 mg/L, protectant activity
  control effect against wheat powdery mildew (%): 100%
[6]; 400 mg/L, protectant activity
  control effect against wheat powdery mildew (%): 100%
[6]; 25 ppm
  protectant activity against wheat powdery mildew in vivo: 100%
[6]; 100 ppm
  protectant activity against wheat powdery mildew in vivo: 100%
[6]; 400 ppm
  protectant activity against wheat powdery mildew in vivo: 100%
[7]; 25 ppm
  protectant activity against cucumber downy mildew in vivo: 100%
[7]; 50 ppm
  protectant activity against cucumber downy mildew in vivo: 100%
[7]; 100 ppm
  protectant activity against cucumber downy mildew in vivo: 100%
[7]; 400 ppm
  protectant activity against cucumber downy mildew in vivo: 100%

## CCc1ncnc(NCCc2ccc(Oc3ccc(Cl)cc3)c(OC)c2)c1Cl [II-1965]
[1]; [9]
  control (test results against diamond back moth): 100%
[2]; 600 ppm, mortality after 72 h
  control (test results against armyworm): 100%
[3]; 10 mg/L, contrastive test
  Insecticidal activity against peach aphid (%): 100%
[3]; 100 mg/L, contrastive test
  Insecticidal activity against peach aphid (%): 100%
[3]; 600 mg/L, contrastive test
  Insecticidal activity against peach aphid (%): 100%
[3]; [10]
  control (test results against green peach aphid): 100%
[3]; [11]
  control (test results against green peach aphid): 100%
[3]; [12]
  control (test results against green peach aphid): 100%
[4]; [8]
  control against carmine spider mite: 100%
[4]; [9]
  control against carmine spider mite: 100%
[5]; 400 ppm
  protectant activity against corn rust in vivo: 100%
[6]; 400 ppm
  protectant activity against wheat powdery mildew in vivo: 100%
[7]; 400 ppm
  protectant activity against cucumber downy mildew in vivo: 100%
